Data reported in ChEMBL document CHEMBL1150061, “Isolation of 9-Dihydro-13-acetylbaccatin III from Taxus canadensis” (J Nat Prod, 1992).
Converted amounts (≈) assume the structure as drawn.

Test system: P388
Assay: Antiproliferative activity against mouse P388 cells by MTT assay
Type: functional, cell-based

Row | SMILES | IC50 [µg/mL]
1 | CC(=O)O[C@H]1C[C@@]2(O)[C@@H](OC(=O)c3ccccc3)[C@@H]3[C@]4(OC(C)=O)CO[C@@H]4C[C@H](O)[C@@]3(C)[C@@H](O)[C@H](OC(C)=O)C(=C1C)C2(C)C | 20 (≈ 31.7 µM)
2 | CC(=O)O[C@H]1C(=O)[C@@]2(C)[C@H]([C@H](OC(=O)c3ccccc3)[C@]3(O)C[C@H](OC(=O)[C@H](O)[C@@H](NC(=O)c4ccccc4)c4ccccc4)C(C)=C1C3(C)C)[C@]1(OC(C)=O)CO[C@@H]1C[C@@H]2O [PACLITAXEL] | 0.05 (≈ 0.0586 µM)
